How the values were obtained:
[1] = tested on: Colo-829 cells; assay: Cytotoxic activity, WST-1 assay, melanoma Colo-829; assay type: cell-based, human; conditions: for SI (IC50 HFF-1/IC50 cancer line) Colo-829: HFF-1 vs Colo-829; for IC50: Homo sapiens, melanoma Colo-829, 72 h, WST-1
Excerpt: (§1) Anticancer activity of compounds 11–14 was designated against following human cancer cell lines: melanoma (Colo-829), ovarian cancer (SK-OV-3), breast cancer (MDA-MB-231, T47D and MCF-7), lung cancer (A549) and normal fibroblasts (HFF-1). As a reference substance, the doxorubicin was used. The results are presented in Table 1 as IC50, where IC50 means the concentration of tested compounds (µM) causing the growth inhibition of 50% for given tumor cells. The negative value (Neg.) means that the IC50 is higher than 30 µM. Selectivity index (SI) as the ratio of the IC50 for normal fibroblast (HFF-1) to IC50 of the corresponding cell line, is presented in Table S2.
(§2) Compounds 7–14 and doxorubicin were tested for cytotoxic activity in vitro against panel of human cancer cell lines: melanoma (Colo-829, ATCC, Rockville, MD, USA), ovarian cancer (SK-OV-3, ATCC, Rockville, MD, USA), breast cancer (T47D, MCF-7, and MDA-MB-231, ATCC, Rockville, MD, USA) and lung cancer (A549, ATCC, Rockville, MD, USA). The cultured cells were kept at 37 °C and 5% CO2. The cells were seeded (5 × 10^4 cells/well/[…] DMEM supplemented with 10% FCS and streptomycin/penicillin) using 96-well plates (Nunc Thermo Fisher Scientific, Waltham, MA, USA). The tested compounds 7–14 with the concentration of 1–100 µg/mL DMSO were inducted with the cancer cells for 72 h. The WST-1-formazan (proliferation reagent WST-1 assay, Roche Diagnostics, Mannheim, Germany) was detected using a microplate reader at 450 nm. Results were expressed as a mean value of at least three independent experiments performed in triplicate.

[2] = tested on: A549 cells; assay: Cytotoxic activity, WST-1 assay, lung cancer A549; assay type: cell-based, human; conditions: for SI (IC50 HFF-1/IC50 cancer line) A549: HFF-1 vs A549; for IC50: Homo sapiens, lung cancer A549, 72 h, WST-1
Excerpt: as §1, §2

[3] = tested on: T47D cells; assay: Cytotoxic activity, WST-1 assay, breast cancer T47D; assay type: cell-based, human; conditions: for SI (IC50 HFF-1/IC50 cancer line) T47D: HFF-1 vs T47D; for IC50: Homo sapiens, breast cancer T47D, 72 h, WST-1
Excerpt: as §1, §2

[4] = biological target: T1, NQO1 (DT-diaphorase, EC 1.6.5.5, human recombinant) (Homo sapiens, UniProt P15559); assay: NQO1 substrate NADPH recycling enzymatic assay; assay type: biochemical; conditions: for NQO1 activity (enzymatic conversion rate): compound 10 µmol/L, pH 7.4, 25 °C, absorbance at 340 nm
T1 construct: purchased Sigma-Aldrich
Protocol: The interaction between 1,4-quinone moiety of hybrid and NQO1 protein leads to reduction in quinone to hydroquinone and production of reactive oxide form (ROS). According to a literature method, the ability of hybrids 11–14 and streptonigrin (ST) to be a substrate for NQO1 was examined by measuring the oxidation of NADPH to NADP^+ [29, 32].
Compounds 11–14 (10 µmol/L) were tested as NQO1 substrates using the NADPH recycling assay according to the literature method. The recombinant NQO1 (DT-diaphorase, EC 1.6.5.5, human recombinant, Sigma-Aldrich) was used, and the oxidation of NADPH to NADP^+ was measured at the absorption wavelength of 340 nm on the BioTek 800TS microplate reader (BioKom, Janki, Poland). Compounds were dissolved in dimethyl sulfoxide (2 µL) and added to the 96-well plate. The NQO1 protein (1.4 µg/mL) in 50 mmol/L potassium phosphate buffer (pH = 7.4) was added to each well (198 µL) (Nunc Thermo Fisher Scientific, Waltham, MA, USA). Once the 96-well plate was filled with the assay solutions, except the NADPH solution, it was placed into the instrument and left to sit for 5 min before starting the measurements. The enzymatic reaction was initiated by automatically dispensing the NADPH solution into the wells, and data were recorded at 10 s intervals for 5 min at 25 °C. The linear part of the absorbance vs. time graphs (the first 20 s to 1 min) was fitted, and the slopes were calculated. NADPH oxidation rates were compared with reactions lacking the tested compound. Initial velocities were calculated, and data were expressed as µmol NADPH/µmol NQO1/min. All reactions were carried out at least in triplicate.

[5] = tested on: MCF-7 cells; assay: Cytotoxic activity, WST-1 assay, breast cancer MCF-7; assay type: cell-based, human; conditions: for SI (IC50 HFF-1/IC50 cancer line) MCF-7: HFF-1 vs MCF-7; for IC50: Homo sapiens, MCF7, breast cancer MCF-7, 72 h, WST-1
Excerpt: as §1, §2

[6] = tested on: MDA-MB-231 cells; assay: Cytotoxic activity, WST-1 assay, breast cancer MDA-MB-231; assay type: cell-based, human; conditions: for SI (IC50 HFF-1/IC50 cancer line) MDA-MB-231: HFF-1 vs MDA-MB-231; for IC50: Homo sapiens, breast cancer MDA-MB-231, 72 h, WST-1
Excerpt: as §1, §2

[7] = tested on: HFF-1 cells; assay: Cytotoxic activity, WST-1 assay, normal fibroblasts HFF-1; assay type: cell-based; conditions: Homo sapiens, normal fibroblasts HFF-1, 72 h
Excerpt: as §1, §2

[8] = tested on: SK-OV-3 cells; assay: Cytotoxic activity, WST-1 assay, ovarian cancer SK-OV-3; assay type: cell-based, human; conditions: for SI (IC50 HFF-1/IC50 cancer line) SK-OV-3: HFF-1 vs SK-OV-3; for IC50: Homo sapiens, ovarian cancer SK-OV-3, 72 h, WST-1
Excerpt: as §1, §2

T1 sequence (P15559 whole entry): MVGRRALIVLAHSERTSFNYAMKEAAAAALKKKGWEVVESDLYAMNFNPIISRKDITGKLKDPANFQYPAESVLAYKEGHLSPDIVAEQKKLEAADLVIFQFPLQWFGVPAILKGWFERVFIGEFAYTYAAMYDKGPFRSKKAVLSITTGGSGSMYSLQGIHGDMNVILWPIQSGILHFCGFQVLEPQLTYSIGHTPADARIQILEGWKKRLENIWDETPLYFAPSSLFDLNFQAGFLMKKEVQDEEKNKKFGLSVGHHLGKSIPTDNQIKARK

Compound | SI (IC50 HFF-1/IC50 cancer line) Colo-829 [1] | IC50 [1] [µM] | SI (IC50 HFF-1/IC50 cancer line) A549 [2] | IC50 [2] [µM] | SI (IC50 HFF-1/IC50 cancer line) T47D [3] | IC50 [3] [µM] | Enzymatic conversion rate relative to the 2-methyl-5,8-quinolinedione analogue ([4]; 11c vs 12c, 11e vs 12e) [times] | NQO1 activity (enzymatic conversion rate) [4] [µmol NADPH/µmol NQO1/min] | SI (IC50 HFF-1/IC50 cancer line) MCF-7 [5] | IC50 [5] [µM] | Activity against MCF-7 relative to A549 ([5]; fold more active against MCF-7 than A549) [times] | SI (IC50 HFF-1/IC50 cancer line) MDA-MB-231 [6] | IC50 [6] [µM] | IC50 [7] [µM] | SI (IC50 HFF-1/IC50 cancer line) SK-OV-3 [8] | IC50 [8] [µM] | NQO1 activity (enzymatic conversion rate) ([4]; listed as streptonigrin) [µmol NADPH/µmol NQO1/min]
O=C1C(Cl)=C(Oc2cccc3ccc(N4CCCC4)nc23)C(=O)c2ncccc21 [Compound 11e, 6-chloro-7-{[2-(pyrrolidin-1-yl)quinolin-8-yl]oxy}quinoline-5,8-dione] | 0.76 | 15 ± 0.32 | 0.94 | 12.1 ± 1.06 | 0.55 | 20.8 ± 1.03 | 1.8 | 1082 ± 51 | 5.64 | 2.03 ± 0.03 | ~6 | 5.81 | 1.97 ± 0.13 | 11.5 ± 0.69 | 6.66 | 1.72 ± 0.09 | 
O=C1C(Cl)=C(Oc2cccc3ccc(N4CCOCC4)nc23)C(=O)c2ncccc21 [Compound 11f, 6-chloro-7-{[2-(morpholin-4-yl)quinolin-8-yl]oxy}quinoline-5,8-dione] | 1.83 | 14 ± 1.16 | 2.03 | 12.6 ± 0.82 | 1.38 | 18.6 ± 0.62 |  | 113 ± 19 | 1.58 | 16.21 ± 0.12 |  | 1.86 | 13.8 ± 1.09 | 25.64 ± 0.19 | 2.35 | 10.9 ± 0.48 | 
Cc1ccc2c(n1)C(=O)C(Oc1cccc3ccc(N4CCCC4)nc13)=C(Cl)C2=O [Compound 12e, 6-chloro-2-methyl-7-{[2-(pyrrolidin-1-yl)quinolin-8-yl]oxy}quinoline-5,8-dione] | 11.48 | 1.53 ± 0.08 | 1.16 | 15.1 ± 0.39 | 1.01 | 17.4 ± 1.3 |  | 600 ± 35 | 9.29 | 1.89 ± 0.23 |  | 11.71 | 1.5 ± 0.15 | 17.6 ± 1.05 | 16.72 | 1.05 ± 0.06 | 
Cc1ccc2c(n1)C(=O)C(Oc1cccc3ccc(N4CCOCC4)nc13)=C(Cl)C2=O [Compound 12f, 6-chloro-2-methyl-7-{[2-(morpholin-4-yl)quinolin-8-yl]oxy}quinoline-5,8-dione] | 1.49 | 13.3 ± 0.21 | 1.72 | 11.6 ± 0.72 | 1.15 | 17.3 ± 0.26 |  | 210 ± 20 | 1.41 | 14.1 ± 0.67 |  | 1.95 | 10.2 ± 0.28 | 19.9 ± 0.93 | 1.48 | 13.5 ± 0.21 | 
O=C1C(Cl)=C(Oc2cccc3ccc(N4CCCC4)nc23)C(=O)c2cnccc21 [Compound 13e, 6-chloro-7-{[2-(pyrrolidin-1-yl)quinolin-8-yl]oxy}isoquinoline-5,8-dione] | 0.79 | 19.6 ± 1.32 | 1.11 | 14 ± 0.26 |  | > 30 |  | 214 ± 21 | 0.92 | 16.9 ± 0.5 |  | 0.93 | 16.6 ± 0.38 | 15.5 ± 0.72 | 0.98 | 15.8 ± 0.26 | 
O=C1C(Cl)=C(Oc2cccc3ccc(N4CCOCC4)nc23)C(=O)c2cnccc21 [Compound 13f, 6-chloro-7-{[2-(morpholin-4-yl)quinolin-8-yl]oxy}isoquinoline-5,8-dione] | 8.76 | 2.1 ± 0.06 | 15.07 | 1.22 ± 0.08 | 8.55 | 2.15 ± 0.06 |  | 143 ± 26 | 17.85 | 1.03 ± 0.19 |  | 141.46 | 0.13 ± 0.05 | 18.4 ± 0.35 | 14.95 | 1.23 ± 0.08 | 
O=C1C(Cl)=C(Oc2cccc3ccc(N4CCCC4)nc23)C(=O)c2ccccc21 [Compound 14e, 2-chloro-3-{[2-(pyrrolidin-1-yl)quinolin-8-yl]oxy}naphthalene-1,4-dione] | 0.85 | 22 ± 0.6 | 0.84 | 22.1 ± 0.89 |  | > 30 |  | 354 ± 22 | 0.78 | 24.05 ± 0.21 |  | 2.43 | 7.66 ± 1.12 | 18.7 ± 1.36 | 1.17 | 15.9 ± 0.22 | 
O=C1C(Cl)=C(Oc2cccc3ccc(N4CCOCC4)nc23)C(=O)c2ccccc21 [Compound 14f, 2-chloro-3-{[2-(morpholin-4-yl)quinolin-8-yl]oxy}naphthalene-1,4-dione] |  | 11.3 ± 1.97 |  | 14 ± 0.86 |  | > 30 |  | 87 ± 15 |  | 17.4 ± 1.02 |  |  | 2.35 ± 0.09 | 20.3 ± 0.87 |  | 14.2 ± 0.76 | 
COc1cccc2c1C(=O)c1c(O)c3c(c(O)c1C2=O)C[C@@](O)(C(=O)CO)C[C@@H]3O[C@H]1C[C@H](N)[C@H](O)[C@H](C)O1 [Doxorubicin, doxorubicin, reference compound] | 2.40 | 0.05 ± 0.01 | 6.00 | 0.02 ± 0.01 | 3.00 | 0.04 ± 0.01 |  |  | 1.00 | 0.12 ± 0.05 |  | 0.19 | 0.64 ± 0.06 | 0.12 ± 0.03 | 0.80 | 0.15 ± 0.03 | 
COC1=C(N)C(=O)c2nc(-c3nc(C(=O)O)c(C)c(-c4ccc(OC)c(OC)c4O)c3N)ccc2C1=O [ST, streptonigrin, reference compound] |  |  |  |  |  |  |  | 725 ± 84 |  |  |  |  |  |  |  |  | 725
